In patent US20250312407A1, “PEPTIDE AND USE THEREOF” (AJINOMOTO CO., INC., priority 2019, published 2025):

Assays:
Assay type in all cases: in vivo, mouse
male KK-Ay mice [1] = assay: Intestine permeability (plasma FD-4 after oral FITC-dextran); conditions: 100 mg/kg oral, vs vehicle group
Protocol: The administration medium (0.5% methylcellulose; vehicle) or compound 1 (100 mg/kg) was orally administered to male KK-Ay mice (11 weeks old) that had been fasted from 10 o'clock the day before, and FITC-dextran (FD-4) (300 mg/kg) was orally administered 1 hr later. Blood was collected from the tail vein 1 hr and 2 hr after FD-4 administration, and the plasma FD-4 concentration was measured.

male C57BL/6J mice = assay: Oral glucose tolerance test (OGTT); conditions: 30 mg/kg oral
Protocol: The administration medium (0.5% methylcellulose; vehicle) or compound 1 (30 mg/kg) was orally administered to male C57BL/6J mice (7 weeks old) that had been fasted from 17 o'clock the day before, and 2 g/kg of glucose was orally administered by gavage 1 hr later. Blood was collected from the tail vein before administration, and 15, 30, 60, 120 and 180 min after administration, and the blood glucose level was measured.
The blood glucose level after glucose loading remained low in the compound 1 administration group from 30 min after loading and thereafter. The results of the area under curve (ΔAUC) of the blood glucose level profile calculated with the 0-minute value as the standard are shown in FIG. 2.

[2] = tested on: ornithine/citrulline ratio; assay: Anti-fatigue action (plasma ornithine/citrulline ratio); conditions: 30 mg/kg by gavage, C57BL/6J mice, portal vein, 120 min after administration, vs vehicle group
Protocol: The administration medium (0.5% methylcellulose; vehicle) or compound 1 (30 mg/kg) was administered by gavage to male C57BL/6J mice (7 weeks old) that had been under fasting treatment overnight. Blood was collected from the portal vein 120 min after administration, and the plasma ornithine and citrulline concentrations were measured. The ornithine/citrulline ratio in plasma is known as a biomarker that increases during fatigue such as chronic fatigue syndrome and the like (e.g., Yamano E et al., “Index markers of chronic fatigue syndrome with dysfunction of TCA and urea cycles”, Scientific Reports, 2016 Oct. 11; 6:34990, doi: 10.1038/srep34990, which is incorporated herein by reference in its entirety).

FGF21 = FGF21 secretion promoting action (plasma FGF21 concentration); conditions: 30 mg/kg by gavage, C57BL/6J mice, portal vein, 120 min after administration, vs vehicle group
Protocol: The administration medium (0.5% methylcellulose; vehicle) or compound 1 (30 mg/kg) was administered by gavage to male C57BL/6J mice (8 weeks old) that had been under fasting treatment for 6 hr. Blood was collected from the portal vein before administration and 120 min after administration, and the plasma FGF21 concentration was measured.

male KK-Ay mice [3] = assay: Insulin tolerance test (ITT); conditions: 30 mg/kg oral, insulin 0.5 U/kg s.c. 1 hr later, profile and ΔAUC vs vehicle group
Protocol: The administration medium (0.5% methylcellulose; vehicle) or compound 1 (30 mg/kg) was orally administered to male KK-Ay mice (7 to 12 weeks old) that had been fasted from 17 o'clock the day before, and insulin (0.5 U/kg) was subcutaneously administered 1 hr later. Blood was collected from the tail vein before administration, and 15, 30, 60, 120 and 180 min after administration, and the blood glucose level was measured. The blood glucose level was also measured for compounds 2 to 6 by a similar method. The results of the area under curve (ΔAUC) of the blood glucose level profile calculated with the 0-minute value as the standard are shown in FIG. 3(b).

acetyl-L-carnitine = assay: Anti-stress, neuroprotective action (plasma acetyl-L-carnitine after restraint stress); conditions: 30 mg/kg oral after 3 hr restraint stress, C57BL/6J mice, 120 min after administration, vs vehicle group
Description: Male C57BL/6J mice (9-week-old) that had been under fasting treatment overnight were housed in a restraint stress cage for mice, and allowed to stand for 3 hr. […] Acetyl-L-carnitine is an endogenous metabolite known to have an anti-stress and neuroprotective action (e.g., Nasca C et al., “L-acetylcarnitine causes rapid antidepressant effects through the epigenetic induction of mGlu2 receptors”, Proc. Natl. Acad. Sci. USA, 2013 Mar. 19; 110 (12): 4804-4809; and Kazak F et al., “Neuroprotective effects of acetyl-1-carnitine on lipopolysaccharide-induced neuroinflammation in mice: Involvement of brain-derived neurotrophic factor”, Neuroscience Letters, 2017 Sep. 29; 658:32-36, which are incorporated herein by reference in their entireties).

## LIVTQTMKGL (Designed peptide) [compound 1]
Male KK-Ay mice [1]; 1 hr after oral FD-4 (300 mg/kg)
  blood FD-4 concentration: suppression of an increase in the blood FD-4 concentration was observed
Male KK-Ay mice [1]; 2 hr after oral FD-4 (300 mg/kg)
  blood FD-4 concentration: suppression of an increase in the blood FD-4 concentration was observed
Male C57BL/6J mice; 0-minute value as the standard, vs vehicle group
  area under curve (ΔAUC) of the blood glucose level profile, OGTT: low value as compared with the vehicle group
Male C57BL/6J mice; 2 g/kg glucose 1 hr later, from 30 min after loading
  blood glucose level after glucose loading: remained low
[2]
  blood ornithine/citrulline ratio: decreased
FGF21
  blood FGF21 concentration: increase in the blood FGF21 concentration was confirmed
Male KK-Ay mice [3]
  blood glucose level after insulin (insulin sensitivity improving effect), ITT: significant decrease in blood glucose
acetyl-L-carnitine
  blood acetyl-L-carnitine concentration: increase in the blood acetyl-L-carnitine concentration was observed
